PubChem BioAssay (NCI)
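Each compound was tested at five concentrations against cells in 96-well plates for 48 hours. TGI: concentration producing complete growth inhibition.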

Assays:
Test in all cases: growth of human tumour cells (NCI), 48 h
UACC-257 melanoma = tested on: UACC-257 melanoma
SNB-19 CNS = tested on: SNB-19 CNS
SK-MEL-2 melanoma = tested on: SK-MEL-2 melanoma
HCT-15 colon = tested on: HCT-15 colon
KM12 colon = tested on: KM12 colon
SK-MEL-5 melanoma = tested on: SK-MEL-5 melanoma
CCRF-CEM leukemia = tested on: CCRF-CEM leukemia
OVCAR-4 ovarian = tested on: OVCAR-4 ovarian
NCI-H226 lung = tested on: NCI-H226 lung
K-562 leukemia = tested on: K-562 leukemia
SF-539 CNS = tested on: SF-539 CNS
HOP-62 NSCLC = tested on: HOP-62 NSCLC
SW-620 colon = tested on: SW-620 colon
NCI-H23 lung = tested on: NCI-H23 lung
BT-549 breast = tested on: BT-549 breast
RPMI-8226 leukemia = tested on: RPMI-8226 leukemia
NCI-H522 lung = tested on: NCI-H522 lung
A498 renal = tested on: A498 renal
U251 CNS = tested on: U251 CNS
MOLT-4 leukemia = tested on: MOLT-4 leukemia
TK-10 renal = tested on: TK-10 renal
DU-145 prostate = tested on: DU-145 prostate
CAKI-1 renal = tested on: CAKI-1 renal
M14 melanoma = tested on: M14 melanoma
MALME-3M melanoma = tested on: MALME-3M melanoma
PC-3 prostate = tested on: PC-3 prostate
SF-268 CNS = tested on: SF-268 CNS
MDA-MB-435 = tested on: MDA-MB-435
RXF 393 renal = tested on: RXF 393 renal
SF-295 CNS = tested on: SF-295 CNS
ACHN renal = tested on: ACHN renal
MDA-MB-231 breast = tested on: MDA-MB-231 breast
OVCAR-8 ovarian = tested on: OVCAR-8 ovarian
IGROV1 ovarian = tested on: IGROV1 ovarian
HCT-116 colon = tested on: HCT-116 colon
SK-MEL-28 melanoma = tested on: SK-MEL-28 melanoma
UO-31 renal = tested on: UO-31 renal
COLO 205 colon = tested on: COLO 205 colon
EKVX NSCLC = tested on: EKVX NSCLC
MDA-N = tested on: MDA-N
HL-60(TB) leukemia = tested on: HL-60(TB) leukemia
OVCAR-5 ovarian = tested on: OVCAR-5 ovarian
OVCAR-3 ovarian = tested on: OVCAR-3 ovarian
HS 578T breast = tested on: HS 578T breast
NCI/ADR-RES ovarian = tested on: NCI/ADR-RES ovarian
SN12C renal = tested on: SN12C renal
A549 NSCLC = tested on: A549 NSCLC
HT29 colon = tested on: HT29 colon
T-47D breast = tested on: T-47D breast
UACC-62 melanoma = tested on: UACC-62 melanoma
MCF7 breast = tested on: MCF7 breast
HOP-92 NSCLC = tested on: HOP-92 NSCLC
LOX IMVI melanoma = tested on: LOX IMVI melanoma
786-0 renal = tested on: 786-0 renal

For `C=CCCC(On1c(-c2ccc(Cl)cc2)csc1=S)c1ccccc1` (stereo not drawn), the TGI (UACC-257 melanoma) was over 100 µM, the TGI (SNB-19 CNS) was over 100 µM and the TGI (SK-MEL-2 melanoma) was over 100 µM. It also gave a TGI (HCT-15 colon) of over 100 µM, a TGI (KM12 colon) of over 100 µM and a TGI (SK-MEL-5 melanoma) of 64.8 µM. For the same compound, the TGI (CCRF-CEM leukemia) was over 100 µM, the TGI (OVCAR-4 ovarian) was over 100 µM and the TGI (NCI-H226 lung) was 81.8 µM. It also gave a TGI (K-562 leukemia) of over 100 µM, a TGI (SF-539 CNS) of over 100 µM and a TGI (HOP-62 NSCLC) of over 100 µM. For the same compound, the TGI (SW-620 colon) was over 100 µM, the TGI (NCI-H23 lung) was over 100 µM and the TGI (BT-549 breast) was over 100 µM. For the same compound, the TGI (RPMI-8226 leukemia) was over 100 µM, the TGI (NCI-H522 lung) was 71.7 µM and the TGI (A498 renal) was over 100 µM. It also gave a TGI (U251 CNS) of over 100 µM, a TGI (MOLT-4 leukemia) of over 100 µM and a TGI (TK-10 renal) of over 100 µM. For the same compound, the TGI (DU-145 prostate) was over 100 µM, the TGI (CAKI-1 renal) was over 100 µM and the TGI (M14 melanoma) was over 100 µM. The TGI (MALME-3M melanoma) was 98.4 µM, the TGI (PC-3 prostate) was over 100 µM and the TGI (SF-268 CNS) was over 100 µM. The TGI (MDA-MB-435) was over 100 µM, the TGI (RXF 393 renal) was over 100 µM and the TGI (SF-295 CNS) was over 100 µM. It also gave a TGI (ACHN renal) of over 100 µM, a TGI (MDA-MB-231 breast) of over 100 µM and a TGI (OVCAR-8 ovarian) of over 100 µM. It also gave a TGI (IGROV1 ovarian) of over 100 µM, a TGI (HCT-116 colon) of over 100 µM and a TGI (SK-MEL-28 melanoma) of over 100 µM. It also gave a TGI (UO-31 renal) of over 100 µM, a TGI (COLO 205 colon) of over 100 µM and a TGI (EKVX NSCLC) of over 100 µM. It also gave a TGI (MDA-N) of 13.4 µM, a TGI (HL-60(TB) leukemia) of 53.6 µM and a TGI (OVCAR-5 ovarian) of over 100 µM. The TGI (OVCAR-3 ovarian) was over 100 µM, the TGI (HS 578T breast) was over 100 µM and the TGI (NCI/ADR-RES ovarian) was over 100 µM. It also gave a TGI (SN12C renal) of over 100 µM, a TGI (A549 NSCLC) of over 100 µM and a TGI (HT29 colon) of over 100 µM. For the same compound, the TGI (T-47D breast) was over 100 µM, the TGI (UACC-62 melanoma) was over 100 µM and the TGI (MCF7 breast) was over 100 µM. For the same compound, the TGI (HOP-92 NSCLC) was over 100 µM, the TGI (LOX IMVI melanoma) was over 100 µM and the TGI (786-0 renal) was over 100 µM.

Compound `CNC(=O)c1ccccc1[S+]1c2cccc3cccc(c23)C(=O)N1C` (stereo not drawn) has a TGI (UACC-257 melanoma) of over 100 µM, a TGI (SNB-19 CNS) of over 100 µM and a TGI (SK-MEL-2 melanoma) of over 100 µM. For the same compound, the TGI (HCT-15 colon) was over 100 µM, the TGI (KM12 colon) was over 100 µM and the TGI (SK-MEL-5 melanoma) was over 100 µM. It also gave a TGI (CCRF-CEM leukemia) of over 100 µM, a TGI (OVCAR-4 ovarian) of over 100 µM and a TGI (NCI-H226 lung) of over 100 µM. It also gave a TGI (K-562 leukemia) of over 100 µM, a TGI (SF-539 CNS) of over 100 µM and a TGI (HOP-62 NSCLC) of over 100 µM. The TGI (SW-620 colon) was over 100 µM, the TGI (NCI-H23 lung) was over 100 µM and the TGI (BT-549 breast) was over 100 µM. The TGI (RPMI-8226 leukemia) was over 100 µM, the TGI (NCI-H522 lung) was over 100 µM and the TGI (A498 renal) was over 100 µM. For the same compound, the TGI (U251 CNS) was over 100 µM, the TGI (MOLT-4 leukemia) was over 100 µM and the TGI (TK-10 renal) was over 100 µM. For the same compound, the TGI (DU-145 prostate) was over 100 µM, the TGI (CAKI-1 renal) was over 100 µM and the TGI (M14 melanoma) was over 100 µM. It also gave a TGI (MALME-3M melanoma) of over 100 µM, a TGI (PC-3 prostate) of over 100 µM and a TGI (SF-268 CNS) of over 100 µM. It also gave a TGI (MDA-MB-435) of over 100 µM, a TGI (RXF 393 renal) of over 100 µM and a TGI (SF-295 CNS) of over 100 µM. The TGI (ACHN renal) was over 100 µM, the TGI (MDA-MB-231 breast) was over 100 µM and the TGI (OVCAR-8 ovarian) was over 100 µM. It also gave a TGI (IGROV1 ovarian) of over 100 µM, a TGI (HCT-116 colon) of over 100 µM and a TGI (SK-MEL-28 melanoma) of over 100 µM. For the same compound, the TGI (UO-31 renal) was over 100 µM, the TGI (COLO 205 colon) was over 100 µM and the TGI (EKVX NSCLC) was over 100 µM. The TGI (MDA-N) was over 100 µM, the TGI (HL-60(TB) leukemia) was over 100 µM and the TGI (OVCAR-5 ovarian) was over 100 µM. For the same compound, the TGI (OVCAR-3 ovarian) was over 100 µM, the TGI (HS 578T breast) was over 100 µM and the TGI (NCI/ADR-RES ovarian) was over 100 µM. The TGI (SN12C renal) was over 100 µM, the TGI (A549 NSCLC) was over 100 µM and the TGI (HT29 colon) was over 100 µM. It also gave a TGI (T-47D breast) of over 100 µM, a TGI (UACC-62 melanoma) of over 100 µM and a TGI (MCF7 breast) of over 100 µM. It also gave a TGI (HOP-92 NSCLC) of over 100 µM, a TGI (LOX IMVI melanoma) of over 100 µM and a TGI (786-0 renal) of over 100 µM.
